US20150216975A1, “NANOVECTOR BASED DRUG DELIVERY SYSTEM FOR OVERCOMING DRUG RESISTANCE” (WILLIAM MARSH RICE UNIVERSITY, priority 2012, published 2015)

What was measured:
GBM cells (BT111 cells) = test: Toxicity of Doc/Vin and Halo/Indo delivered as peptidyl-PEG-HCC in GBM cells, living cell numbers (FIG. 12); type: cell-based, human; conditions: gliomal cells, 24 hours, 50 nM drug; for toxicity in the presence of both pump inhibitors (Halo and Indo): 1 μM Halo and Indo as peptidyl-PEG-HCC; for toxicity on co-incubation with Halo: 1 μM Halo as peptidyl-PEG-HCC (YRWYGYTPQNVI)
Experimental: (§1) In all cases, living cell numbers were calculated at n=6 individual wells and assayed using Hoe. Cells were incubated for 24 hours with Doc or Vin and targeted to the cell surface with peptidyl-PEG-HCC. The targeting peptidyl sequence was DFKLFAVTIKYR, which targets Intigrins αvβ3 and α5β. FIGS. 12B-12C provide data illustrating that drug pump inhibitors Halo and Indo potentiate the effects of Vin and Doc on GBM and breast cancer cells. Cells were incubated with PEG-HCC (control), 50 nM Doc or Vin, or Doc and Vin as peptidyl-PEG-HCC (using DFKLFAVTIKYR targeting Intigrins αvβ3 and α5β). Additionally, these four incubants were treated with PEG-HCC (control), 1 μM Halo or Indo, or Halo and Indo as peptidyl-PEG-HCC (using YRWYGYTPQNVI targeting EGFR).

GBM cells = test: Potentiation of Vin or Doc toxicity in GBM cells by targeted vs untargeted Halo or Indo via IgG/PEG-HCC delivery, cell numbers (FIG. 3); type: cell-based, human; conditions: for increase of toxicity by pump inhibition by Halo (targeted vs untargeted, untargeted averaged to 100%) / increase of toxicity by pump inhibition by Indo (targeted vs untargeted, untargeted averaged to 100%): FIG. 3B; for cell number (% of control): 24 hours
Experimental: To confirm the potentiation effect of chemotherapeutic agents and pump inhibitors, Applicants performed a similar experiment to that shown in FIG. 2. In these experiments, Applicants examined the effects of both inhibitors on both chemotherapeutics. Applicants also inverted the targeting antibodies by utilizing GFAPAB/(Indo or Halo)/PEG-HCC and Il-13RAB/(Doc or Vin)/PEG-HCC. 2 μM Halo/PEG-HCC and Indo/PEG-HCC without antibody targeting were used as controls, which were added with and without 100 nM Vin or Doc as Il-13RAB/Drug/PEG-HCC.
200 nM Il-13RAB/Doc/PEG-HCC caused a drop in cell number to 75% and to 72% (the level seen in the controls) in the presence of (untargeted) Halo/PEG-HCC and Indo/PEG-HCC, respectively. However, targeting of Halo caused a large change in Doc toxicity. The inclusion of an antibody with Halo/PEG-HCC changed the toxicity from 75% to 37%. The inclusion of an antibody with Indo/PEG-HCC changed the Doc toxicity from 72% to 50%.
Vin toxicity was also potentiated in the presence of targeted xenobiotic pump inhibitors. Furthermore, the targeting of Halo dropped the cell numbers from 45% (control number, untargeted) to 27% (targeted). […] However, when Indo was targeted to the GBM cells, this dropped to only 14%. […] Only the potentiating effect is shown, comparing targeted and untargeted xenobiotic pump inhibitors, so that the cell numbers in the presence of untargeted pump inhibitor are averaged to 100%.

[1] = tested on: HER2-neu+ breast cancer cells; test: Total cell protein of breast cancer cells after antibody-guided PEG-HCC drugs and pump inhibitors (FIG. 4B); type: cell-based, human; conditions: 24 hours
Experimental: (§2) Applicants also investigated whether the potentiation of Vin and Doc toxicity (by Halo and Indo) was applicable to other cancer types. Applicants obtained human breast and cervical cancer cells from the ATCC and grew them in 96 well format.
(§3) In a pair of 96-well plates, confluent cancer cells were treated with 1 μM (Indo or Halo)/PEG-HCC and/or 1 μM (Doc or Vin)/PEG-HCC. The inhibitors were guided to the cell surface using anti-HER2 antibodies. The chemotherapeutics were guided using EGFR antibodies. After incubation for 24 hours, one plate was used to measure total cell protein, and the other was used in dye labeling studies (as described above). This was done for both HER2-neu+ breast and HER2-neu+ cervical cancer cells (where HER2-neu is human epidermal growth factor receptor-2).
100 nM Doc delivered using EGFR IgG yielded 51% of the control, whereas 100 nM Vin yielded 65% of the control. Halo increased the toxicity of Doc, thereby lowering the total protein to 30% of the control. […] In the panels of FIG. 4D, the dye retention of these breast cancer cells is shown under the same conditions. All four compounds cause a significant brightening of the cells. The inhibitor and chemotherapeutic combination panels also indicate that dye retention is potentiated in all four combinations/permutations.

[2] = tested on: HER2-neu+ cervical cancer cells; test: Total cell protein of cervical cancer cells after antibody-guided PEG-HCC drugs and pump inhibitors (FIG. 4A); type: cell-based, human; conditions: 24 hours
Experimental: as §2, §3
100 nM Doc delivered using EGFR IgG yielded 78% of the control, whereas 100 nM Vin yielded 87% of the control. Halo increased the toxicity of Doc, lowering the total protein to 25% of the control. […] Indo increased the toxicity of Doc slightly (from 78% to 68%) and Vin greatly (from 87% to 36%). In the panels of FIG. 4C, the dye retention of these cervical cancer cells is shown under the same conditions. All four compounds cause a significant brightening of the cells.

[3] = tested on: xenobiotic pumps in human primary GBM cells; test: Retention of xenobiotic pump dye substrates (Rh123, BCECF, Hoe) in GBM cells (FIG. 1, 2A, 2F); type: cell-based; conditions: for dye retention, chemotherapeutic drug alone / dye accumulation in drug and inhibitor combinations / dye retention, pump inhibitor loaded on PEG-HCC targeted by IL-13R IgGs: GBM cells; for dye retention, chemotherapeutic drug alone / dye accumulation in drug and inhibitor combinations: 24 hours; for dye retention, chemotherapeutic drug alone: 100 nM as GFAPAB/Drug/PEG-HCC; for dye accumulation in drug and inhibitor combinations: 100 nM drug and 2 μM inhibitor on targeted PEG-HCC (FIG. 2A); for retention of dyes (Rh123, BCECF, Hoe): human GBM cells, ninety minutes, 20 μM Fumitremorgin C, 200 μM Indomethacin; for dye retention, pump inhibitor loaded on PEG-HCC targeted by IL-13R IgGs: Il-13RAB/Inhibitor/PEG-HCC (FIG. 2A, 2F)
Source text: Applicants investigated the ability of human primary glioma cells to retain dyes in the absence and presence of known drug pump inhibitors. […] After ninety minutes, the cells were fixed using ice-cold 2% paraformaldehyde. The fixed cells were stored overnight in a refrigerator. The cells were then washed three times in phosphate buffered saline at pH 7.4 (PBS) and imaged in a fluorescence microscope.
In this experiment, PEG-HCCs were loaded with Halo, Sulfinpyrazone (Sulf) or Indo. The same methodologies outlined above were used. The constructs were then targeted to GBM cells by IL-13R IgGs.
(§4) The drugs (Vin and Doc) were delivered to a final concentration of 100 nM in the form of GFAPAB/Drug/PEG-HCC. In some experiments, pump inhibitors Haloperidol (Halo) and Indomethacin (Indo) were added at a final concentration of 2 μM in the form of Il-13RAB/Inhibitor/PEG-HCC. Controls consisting of unloaded PEG-HCC, drug/inhibitor loaded PEG-HCC, GFAPAB, or saline were also used. Cells were treated for 24 hours with GFAPAB/Drug/PEG-HCC and/or Il-13RAB/Halo/PEG-HCC. Next, the cells were incubated for 1 hour with Rh123, BCECF-AM and Hoe, as previously described. Cells were then imaged at ×30 magnification using filters for Rh123, BCECF and Hoe.

[4] = tested on: human breast cancer cells; test: Toxicity of Doc/Vin and Halo/Indo delivered as peptidyl-PEG-HCC in breast cancer cells (FIG. 12); type: cell-based; conditions: 50 nM drug; for potentiation of toxicity by Indo: 1 μM Indo as peptidyl-PEG-HCC
Experimental: as §1

[5] = tested on: glioblastoma cells grown in culture; test: Living and dead GBM cell counts after Drug/PEG-HCC with or without Halo (FIG. 2B-2E); type: cell-based, human; conditions: for dead cell numbers when Halo is used in conjunction: 24 hours, drug/PEG-HCC with Halo (FIG. 2C)
Experimental: as §4
Furthermore, it is shown in FIG. 2C that the dead cell numbers are elevated when Halo is used in conjunction with both Vin and Doc.
FIGS. 2D-2E show additional data relating to Halo-mediated potentiation of Vin, Doc and SN38 toxicity in HADES compositions.

[6] = 100 nM drug delivered using EGFR IgG, no pump inhibitor
[7] = drug via EGFR IgG plus Halo/PEG-HCC guided by anti-HER2
[8] = drug via EGFR IgG plus Indo/PEG-HCC guided by anti-HER2

Structure (SMILES) | toxicity in the presence of both pump inhibitors (Halo and Indo) (GBM cells (BT111 cells)) | toxicity on co-incubation with Halo (GBM cells (BT111 cells)) | increase of toxicity by pump inhibition by Halo (targeted vs untargeted, untargeted averaged to 100%) (GBM cells) | increase of toxicity by pump inhibition by Indo (targeted vs untargeted, untargeted averaged to 100%) (GBM cells) [%] | total cell protein (% of the control) [1, 6] [%] | total cell protein (% of the control) [1, 8] [%] | total cell protein (% of the control) [2, 6] [%] | total cell protein (% of the control) [2, 8] [%] | dye retention, chemotherapeutic drug alone [3] | dye accumulation in drug and inhibitor combinations [3] | potentiation of toxicity by Indo [4] | dead cell numbers when Halo is used in conjunction [5] | retention of dyes (Rh123, BCECF, Hoe) [3] | dye retention, pump inhibitor loaded on PEG-HCC targeted by IL-13R IgGs [3] | further results
CC(=O)O[C@@]12CO[C@@H]1C[C@H](O)[C@@]1(C)C(=O)[C@H](O)C3=C(C)[C@@H](OC(=O)[C@H](O)[C@@H](NC(=O)OC(C)(C)C)c4ccccc4)C[C@@](O)([C@@H](OC(=O)c4ccccc4)[C@H]21)C3(C)C [Doc, docetaxel] | greater level of toxicity than Halo or Indo alone | more enhanced by co-incubation with Halo | approximately 50% | 40 | 51 | 68 | 78 | 68 | differentially increase dye retention | synergistic effect in dye accumulation | potentiated | elevated | – | – | total cell protein (% of the control) [1, 7]: 30%; total cell protein (% of the control) [2, 7]: 25%; toxicity with both pump inhibitors (Halo and Indo) ([4]; 1 μM Halo and Indo as peptidyl-PEG-HCC): greatly by both on combination; potentiation of toxicity by Halo ([4]; 1 μM Halo as peptidyl-PEG-HCC): potentiated
COc1ccc2c3c([nH]c2c1)[C@H](C=C(C)C)N1C(=O)[C@@H]2CCCN2C(=O)[C@@H]1C3 [Fumitremorgin C] | – | – | – | – | – | – | – | – | – | – | – | – | increase dye retention of all dyes | – | –
O=C(CCCN1CCC(O)(c2ccc(Cl)cc2)CC1)c1ccc(F)cc1 [Halo, Haloperidol] | – | – | – | – | – | – | – | – | – | – | – | – | – | same experimental results were obtained | –
COc1ccc2c(c1)c(CC(=O)O)c(C)n2C(=O)c1ccc(Cl)cc1 [Indo, Indomethacin] | – | – | – | – | – | – | – | – | – | – | – | – | increase dye retention of all dyes | same experimental results were obtained | –
CCc1c2c(nc3ccc(O)cc13)-c1cc3c(c(=O)n1C2)COC(=O)[C@]3(O)CC [SN-38] | – | – | – | – | – | – | – | – | – | – | – | – | – | – | effect of Halo on toxicity in HADES compositions ([5]; FIGS. 2D-2E): minimally affected
CC[C@]1(O)C[C@@H]2CN(CCc3c([nH]c4ccccc34)[C@@](C(=O)OC)(c3cc4c(cc3OC)N(C)[C@H]3[C@@](O)(C(=O)OC)[C@H](OC(C)=O)[C@]5(CC)C=CCN6CC[C@]43[C@@H]65)C2)C1 [Vin, vinblastine] | did not lead to a greater level of toxicity than Indo alone | moderately enhanced | approximately 50% | 70 | 65 | 33 | 87 | 36 | differentially increase dye retention | synergistic effect in dye accumulation | potentiated | elevated | – | – | toxicity in the presence of Indo (GBM cells (BT111 cells); 1 μM Indo as peptidyl-PEG-HCC (YRWYGYTPQNVI)): more than doubled; cell number (% of control) (GBM cells; drug as Il-13RAB/Drug/PEG-HCC with antibody-targeted Halo/PEG-HCC (GFAPAB)): 27%; cell number (% of control) (GBM cells; drug as Il-13RAB/Drug/PEG-HCC with antibody-targeted Indo/PEG-HCC (GFAPAB)): 14%; effect of Halo on toxicity (in words) [1]: no potentiating effect; effect of Halo on toxicity (in words) [2]: slight effect
